The text below walks through data of patent US10040789B2, “1,3,4-thiadiazole compounds and their use in treating cancer” (AstraZeneca AB, priority 2015, dated 2018).

Read-outs that look alike come from different tables or passages of the source.

Assay [1] concerns the target GLS1 (Homo sapiens (Human), UniProt O94925). The assay can be described thus: GLS Enzyme Potency Assay (Glutamate Oxidase/AmplexRed coupled assay). In kind it is biochemical. The text has this:
(§1) The following assays were used to measure the effects of the compounds described herein: a) GLS Enzyme Potency Assay; b) GLS Cell Potency Assay; c) GLS Cell Proliferation Assay. During the description of the assays, generally: • i. The following abbreviations have been used: CO2=Carbon dioxide; DMEM=Dulbecco's Modified Eagle Medium; DMSO=Dimethyl sulphoxide; EDTA=Ethylenediaminetetraacetic acid; EGTA=Ethylene glycol tetraacetic acid; FCS=Foetal calf serum; h=Hour(s); NBS=Non-binding surface; SDS=Sodium dodecyl sulphate; TRIS=Tris(Hydroxymethyl)aminomethane. • ii. IC50 values were calculated using a smart fitting model in Genedata.
Assay a): GLS Enzyme Potency Assay
A Glutamate Oxidase/AmplexRed coupled assay was used to measure the ability of compounds to bind to and inhibit the activity of GLS1 in vitro. […] GLS1 was diluted to 2×working concentration and incubated at room temperature to allow the tetrameric/dimeric forms to reach steady state. Assay measurements were performed in buffer comprising 50 mM TRIS pH 7.8, 100 mM NaPO4, pH 7.8, 0.001% v/v Tween20. […] DMSO concentration was maintained at 2% by back filling with DMSO solution. […] 3 μL of 100 mM glutamine diluted in assay buffer was then added and the reaction incubated at room temperature for 60 minutes. […] An artefact version of the assay where the 6His tagged GLS protein and glutamine were replaced with assay buffer was also used to rule out non specific effects on the assay components.

Assay [2] concerns the target cellular GLS activity in PC3 cells (Homo sapiens (Human), UniProt O94925). Put plainly: GLS Cell Potency Assay (PC3 coupled assay measuring cellular glutamate depletion). In kind it is cell-based. Particulars: PC3 cells, 6 h incubation, cellular glutamate depletion; read-out: Assay b) GLS cell MOA Mean IC50.
Description: as §1
Assay b): GLS Cell Potency Assay
Compounds were assessed for their potential to inhibit cellular GLS activity by use of a PC3 coupled assay measuring cellular glutamate depletion. […] DMSO concentration was maintained at 0.3% by back filling with DMSO solution. PC3 cells were grown in phenol free DMEM, 10% dialyzed FCS, 2 mM glutamine and following dispersal by trypsinisation were plated at 5.6×10^3 cells per well in 40 μl of growth medium directly into the 384 well assay plates containing dispensed compound. After incubation for 6 h at 37° C., 5% CO2 growth media was aspirated and cells lysed in 15 μl of buffer containing 10 mM TRIS pH7.4, 100 mM NaCl, 1 mM EDTA, 1 mM EGTA, 1 mM NaF, 20 mM Na4P2O7, 2 mM Na3VO4, 1% Triton X-100, 10% glycerol, 0.1% SDS and 0.5% deoxycholate. 4 μl Of cell lysate was then transferred to a 384 well NBS plate (Corning product code 3575) and 35 μl of […] Amplex Red, 0.1375 U/mL Horseradish Peroxidase, 0.044 U/mL glutamate oxidase, 100 mM TRIS pH7.5 was added.

Assay [3] relates to NCI-H1703 cells. Put plainly: GLS Cell Proliferation Assay (NCI-H1703 cell proliferation). In kind it is cell-based.
Description: as §1
Assay c): GLS Cell Proliferation Assay
The ability of compounds to inhibit cell growth was measured using a 384 well plate NCI-H1703 cell proliferation assay. NCI-H1703 cells were grown in phenol red free RPMI1640, 10% FCS and 2 mM glutamine and seeded at a density of 750 cells per well in 40 μl of growth medium into clear-bottom 384 well assay plates (Corning product code 3712) and incubated for 24 h at 37° C., 5% CO2. Test compounds were prepared by dilution in 100% DMSO to give the correct dose range for 12 point concentration response and an appropriate volume (5-120 nl) dispensed directly into the assay plates containing plated cells. DMSO concentration was maintained at 0.3% by back filling with DMSO solution. Plates were incubated for 5 days at 37° C., 5% CO2, Sytox Green and Saponin added to final concentration of 2 μM and 0.25% respectively and incubated for 6 h prior to analysis. Plates were read on an Acumen eX3 (TTP Labtech) using 488 nm excitation and FITC filter set (500-530 nm) for emission. IC50 values were calculated by curve fitting to max inhibition of day zero growth using GeneData software analysis.

[4] abbreviates: recombinant 6His tagged GLS protein (amino acids 63-669), 60 minutes reaction with glutamine.
The mark [5] stands for this setting: Homo sapiens, 120 h; NCI-H1703 cells, 5 days incubation, Sytox Green; read-out: Assay c) Prolif Mean IC50.

Sequence of cellular GLS activity in PC3 cells (O94925 55-669): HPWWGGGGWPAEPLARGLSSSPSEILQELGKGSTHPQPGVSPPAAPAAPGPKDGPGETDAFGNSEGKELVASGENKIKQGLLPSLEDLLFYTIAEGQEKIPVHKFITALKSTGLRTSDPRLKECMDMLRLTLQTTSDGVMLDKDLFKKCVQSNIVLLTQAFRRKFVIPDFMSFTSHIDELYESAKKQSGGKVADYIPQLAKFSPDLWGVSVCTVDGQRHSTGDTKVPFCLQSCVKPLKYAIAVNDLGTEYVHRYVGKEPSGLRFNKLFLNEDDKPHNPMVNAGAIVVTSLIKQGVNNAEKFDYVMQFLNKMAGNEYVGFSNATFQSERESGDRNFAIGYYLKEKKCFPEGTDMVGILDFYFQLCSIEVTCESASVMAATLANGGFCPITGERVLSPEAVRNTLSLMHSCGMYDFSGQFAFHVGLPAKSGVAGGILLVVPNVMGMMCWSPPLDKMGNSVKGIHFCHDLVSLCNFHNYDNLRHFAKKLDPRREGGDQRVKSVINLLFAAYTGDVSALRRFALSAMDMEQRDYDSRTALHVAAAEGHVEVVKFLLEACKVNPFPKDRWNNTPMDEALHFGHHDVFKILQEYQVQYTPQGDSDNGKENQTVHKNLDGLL
Sequence of GLS1 (O94925 63-669): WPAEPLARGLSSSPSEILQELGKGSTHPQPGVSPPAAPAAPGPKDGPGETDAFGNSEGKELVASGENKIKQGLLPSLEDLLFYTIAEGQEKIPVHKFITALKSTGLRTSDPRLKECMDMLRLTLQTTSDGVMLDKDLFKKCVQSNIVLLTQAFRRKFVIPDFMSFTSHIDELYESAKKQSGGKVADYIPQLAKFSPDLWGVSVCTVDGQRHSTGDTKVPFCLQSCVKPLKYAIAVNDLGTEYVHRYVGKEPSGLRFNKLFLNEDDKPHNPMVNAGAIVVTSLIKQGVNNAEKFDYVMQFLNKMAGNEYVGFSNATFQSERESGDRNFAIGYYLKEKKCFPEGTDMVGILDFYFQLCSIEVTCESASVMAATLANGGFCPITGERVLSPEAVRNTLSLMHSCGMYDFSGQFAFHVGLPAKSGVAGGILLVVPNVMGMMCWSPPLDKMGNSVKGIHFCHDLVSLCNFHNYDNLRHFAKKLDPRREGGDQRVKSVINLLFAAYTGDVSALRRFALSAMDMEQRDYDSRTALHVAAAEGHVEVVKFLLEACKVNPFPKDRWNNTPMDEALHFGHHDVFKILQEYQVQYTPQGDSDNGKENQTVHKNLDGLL

For the compound `Cc1ccc([C@@H](C(=O)Nc2nnc(N[C@@H]3CCN(c4cccnn4)C3)s2)N(C)C)cc1` [Example 9, (2S)-2-(dimethylamino)-2-(4-methylphenyl)-N-[5-[[(3R)-1-pyridazin-3-ylpyrrolidin-3-yl]amino]-1,3,4-thiadiazol-2-yl]acetamide], the values for the 50% inhibitory concentration (IC50) in assay [1] (setting [4]), in assay [2] and in assay [3] (setting [5]) were 132 nM, 2.81 nM and 44.8 nM, respectively.

Take `Cc1ccccc1[C@@H](C(=O)Nc1nnc(N[C@@H]2CCN(c3cccnn3)C2)s1)N(C)C` [Example 17, (2S)-2-(dimethylamino)-2-(o-tolyl)-N-[5-[[(3R)-1-pyridazin-3-ylpyrrolidin-3-yl]amino]-1,3,4-thiadiazol-2-yl]acetamide]: the IC50 in assay [1] (setting [4]) amounted to 187 nM; in assay [2], 10.7 nM; in assay [3] (setting [5]) it was 163 nM.

Consider `CN1CCc2ccccc2[C@@H]1C(=O)Nc1nnc(N[C@@H]2CCN(c3cccnn3)C2)s1` [Example 8(b), (1R)-2-methyl-N-[5-[[(3R)-1-pyridazin-3-ylpyrrolidin-3-yl]amino]-1,3,4-thiadiazol-2-yl]-3,4-dihydro-1H-isoquinoline-1-carboxamide], for which the IC50 was determined as 194 nM in assay [1], 20.9 nM in assay [2] and 85.1 nM in assay [3] (setting [5]).

For the compound `CN(C)[C@H](C(=O)Nc1nnc(N[C@@H]2CCN(c3cccnn3)C2)s1)c1cccc(OC(F)(F)F)c1` [Example 18, (2S)-2-(dimethylamino)-N-[5-[[(3R)-1-pyridazin-3-ylpyrrolidin-3-yl]amino]-1,3,4-thiadiazol-2-yl]-2-[3-(trifluoromethoxy)phenyl]acetamide], the IC50 in assay [1] (setting [4]) was found to be 182 nM; in assay [2], 1.1 nM; in assay [3] (NCI-H1703 cells, 5 days incubation, Sytox Green; read-out: Assay c) Prolif Mean IC50) it was 3.51 nM.

For `O=C(Nc1nnc(N[C@@H]2CCN(c3ccc(F)nn3)C2)s1)[C@@H](c1cccc(OC(F)(F)F)c1)N1CCC1` [Example 12(b), (2R)-2-(azetidin-1-yl)-N-[5-[[(3R)-1-(6-fluoropyridazin-3-yl)pyrrolidin-3-yl]amino]-1,3,4-thiadiazol-2-yl]-2-[3-(trifluoromethoxy)phenyl]acetamide], the values for the IC50 in assay [1], in assay [2] and in assay [3] (setting [5]) were 246 nM, 1.41 nM and 12.9 nM, respectively.

For `O=C(Nc1nnc(N[C@@H]2CCN(c3cccnn3)C2)s1)[C@H](c1cccc(OC(F)(F)F)c1)N1CCC1` [Example 7(a), (2S)-2-(azetidin-1-yl)-N-[5-[[(3R)-1-pyridazin-3-ylpyrrolidin-3-yl]amino]-1,3,4-thiadiazol-2-yl]-2-[3-(trifluoromethoxy)phenyl]acetamide], the figures for the IC50 in assay [1] (setting [4]), in assay [2] and in assay [3] (setting [5]) were 1330 nM, 8.61 nM and 6.24 nM, respectively.

As to `CN(C)[C@@H](C(=O)Nc1nnc(N[C@@H]2CCN(c3cccnn3)C2)s1)c1cccc(OC(F)F)c1` [Example 3(b), (2R)-2-[3-(difluoromethoxy)phenyl]-2-(dimethylamino)-N-[5-[[(3R)-1-pyridazin-3-ylpyrrolidin-3-yl]amino]-1,3,4-thiadiazol-2-yl]acetamide], the half-maximal inhibitory concentration (IC50) in assay [1] came to 52.4 nM; in assay [2], 0.295 nM; in assay [3] (setting [5]) it was 8.25 nM.

For the compound `Cc1cccc([C@@H](C(=O)Nc2nnc(N[C@@H]3CCN(c4cccnn4)C3)s2)N(C)C)c1` [Example 10, (2S)-2-(dimethylamino)-2-(3-methylphenyl)-N-[5-[[(3R)-1-pyridazin-3-ylpyrrolidin-3-yl]amino]-1,3,4-thiadiazol-2-yl]acetamide], the results for the IC50 in assay [1] (setting [4]), in assay [2] and in assay [3] (setting [5]) were 59.2 nM, 2.12 nM and 21.2 nM, respectively.

`COc1cccc([C@H](C(=O)Nc2nnc(N[C@@H]3CCN(c4cccnn4)C3)s2)N2CCC2)c1` (single isomer, unassigned) [Example 6(b)]: the IC50 in assay [1] amounted to 944 nM; in assay [2], 29.7 nM; in assay [3] (Homo sapiens, NCI-H1703, 120 h, NCI-H1703 cells, 5 days incubation, Sytox Green; read-out: Assay c) Prolif Mean IC50), 80.8 nM.

For orientation: IC50 means the concentration needed to halve the response being measured.
